From US20110178064A1, “SPIRO CONDENSED […] DERIVATIVES FOR USE AS ANTIBACTERIAL” (A[…]&D, priority 2007, published 2011)

Target: Escherichia coli DNA gyrase A/B tetramer (Escherichia coli, UniProt P0AES4+P0AES6)
Assay: DNA gyrase supercoiling activity fluorescence polarisation assay
Format: biochemical
Procedure, shortened: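 Gyrase supercoiling reactions quenched with 40 nM 5′-BODIPY-FL oligodeoxynucleotide triplex probe in pH 3.5 NaCl/sodium acetate buffer; fluorescence anisotropy read after 60 min (485/535 nm).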

Chain of Escherichia coli DNA gyrase A/B tetramer (P0AES4 whole entry, one chain of several): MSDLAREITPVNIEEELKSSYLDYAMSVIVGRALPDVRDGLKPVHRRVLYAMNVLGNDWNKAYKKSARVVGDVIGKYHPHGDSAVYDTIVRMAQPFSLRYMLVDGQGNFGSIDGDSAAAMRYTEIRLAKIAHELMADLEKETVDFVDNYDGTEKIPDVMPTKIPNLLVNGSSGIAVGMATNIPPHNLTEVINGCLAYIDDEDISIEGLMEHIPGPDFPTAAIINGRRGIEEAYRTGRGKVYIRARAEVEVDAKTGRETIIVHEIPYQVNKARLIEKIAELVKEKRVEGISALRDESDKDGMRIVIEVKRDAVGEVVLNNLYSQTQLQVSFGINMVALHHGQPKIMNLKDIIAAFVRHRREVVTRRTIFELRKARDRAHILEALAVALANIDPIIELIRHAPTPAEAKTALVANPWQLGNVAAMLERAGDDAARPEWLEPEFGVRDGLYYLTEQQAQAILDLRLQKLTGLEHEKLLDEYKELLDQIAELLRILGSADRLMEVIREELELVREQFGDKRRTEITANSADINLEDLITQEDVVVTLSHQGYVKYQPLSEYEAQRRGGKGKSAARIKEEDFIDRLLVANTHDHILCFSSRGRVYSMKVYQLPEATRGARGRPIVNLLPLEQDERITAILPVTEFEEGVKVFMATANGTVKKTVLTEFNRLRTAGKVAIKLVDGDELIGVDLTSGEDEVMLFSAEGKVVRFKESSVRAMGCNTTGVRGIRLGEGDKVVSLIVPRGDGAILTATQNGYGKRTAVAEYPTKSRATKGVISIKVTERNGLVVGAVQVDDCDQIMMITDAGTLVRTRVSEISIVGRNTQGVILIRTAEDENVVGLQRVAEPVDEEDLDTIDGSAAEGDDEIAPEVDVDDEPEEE

SMILES	IC50 [µM]
C[C@@H]1CN2c3ccc(-c4ccnnc4)nc3CC3(C(=O)NC(=O)NC3=O)[C@H]2[C@H](C)O1 (relative stereo) [Example 95, (2R,4S,4aS)-rel-2,4-Dimethyl-8-(pyridazin-4-yl)-1,2,4,4a-tetrahydro-2′H,6H-spiro[1,4-oxazino[4,3-a][1,5]naphthyridine-5,5′-pyrimidine]-2′,4′,6′(1′H,3′H)-trione]	2
C[C@@H]1CN2c3cnc(-c4ccnnc4)cc3CC3(C(=O)NC(=O)NC3=O)[C@H]2[C@H](C)O1 (relative stereo) [Example 96, (6aS,7S,9R)-rel-7,9-Dimethyl-3-(pyridazin-4-yl)-6a,7,9,10-tetrahydro-2′H,5H-spiro[1,4-oxazino[4,3-a][1,7]naphthyridine-6,5′-pyrimidine]-2′,4′,6′(1′H,3′H)-trione]	3
C[C@@H]1CN2c3ncc(-c4ncco4)cc3CC3(C(=O)NC(=O)NC3=O)[C@H]2[C@H](C)O1 (relative stereo) [Example 97, (6aS,7S,9R)-rel-7,9-Dimethyl-3-(1,3-oxazol-2-yl)-6a,7,9,10-tetrahydro-2′H,5H-spiro[1,4-oxazino[4,3-a][1,8]naphthyridine-6,5′-pyrimidine]-2′,4′,6′(1′H,3′H)-trione]	44
C[C@@H]1CN2c3ccc(-c4ncco4)nc3CC3(C(=O)NC(=O)NC3=O)[C@H]2[C@H](C)O1 (relative stereo) [Example 98, (2R,4S,4aS)-rel-2,4-Dimethyl-8-(1,3-oxazol-2-yl)-1,2,4,4a-tetrahydro-2′H,6H-spiro[1,4-oxazino[4,3-a][1,5]naphthyridine-5,5′-pyrimidine]-2′,4′,6′(1′H,3′H)-trione]	51
C[C@@H]1CN2c3cnc(-c4ncco4)cc3CC3(C(=O)NC(=O)NC3=O)[C@H]2[C@H](C)O1 (relative stereo) [Example 99, (6aS,7S,9R)-rel-7,9-Dimethyl-3-(1,3-oxazol-2-yl)-6a,7,9,10-tetrahydro-2′H,5H-spiro[1,4-oxazino[4,3-a][1,7]naphthyridine-6,5′-pyrimidine]-2′,4′,6′(1′H,3′H)-trione]	44
C[C@@H]1CN2c3ncc(-c4cscn4)cc3CC3(C(=O)NC(=O)NC3=O)[C@H]2[C@H](C)O1 (relative stereo) [Example 100, (6aS,7S,9R)-rel-7,9-Dimethyl-3-(1,3-thiazol-4-yl)-6a,7,9,10-tetrahydro-2′H,5H-spiro[1,4-oxazino[4,3-a][1,8]naphthyridine-6,5′-pyrimidine]-2′,4′,6′(1′H,3′H)-trione]	7
C[C@@H]1CN2c3ccc(-c4cscn4)nc3CC3(C(=O)NC(=O)NC3=O)[C@H]2[C@H](C)O1 (relative stereo) [Example 101, (2R,4S,4aS)-rel-2,4-Dimethyl-8-(1,3-thiazol-4-yl)-1,2,4,4a-tetrahydro-2′H,6H-spiro[1,4-oxazino[4,3-a][1,5]naphthyridine-5,5′-pyrimidine]-2′,4′,6′(1′H,3′H)-trione]	2
C[C@@H]1CN2c3cnc(-c4cscn4)cc3CC3(C(=O)NC(=O)NC3=O)[C@H]2[C@H](C)O1 (relative stereo) [Example 102, (6aS,7S,9R)-rel-7,9-Dimethyl-3-(1,3-thiazol-4-yl)-6a,7,9,10-tetrahydro-2′H,5H-spiro[1,4-oxazino[4,3-a][1,7]naphthyridine-6,5′-pyrimidine]-2′,4′,6′(1′H,3′H)-trione]	16
COc1cncc(-c2cnc3c(c2)CC2(C(=O)NC(=O)NC2=O)[C@H]2[C@H](C)O[C@H](C)CN32)n1 (relative stereo) [Example 103, (6aS,7S,9R)-rel-3-(6-Methoxypyrazin-2-yl)-7,9-dimethyl-6a,7,9,10-tetrahydro-2′H,5H-spiro[1,4-oxazino[4,3-a][1,8]naphthyridine-6,5′-pyrimidine]-2′,4′,6′(1′H,3′H)-trione]	4
COc1cncc(-c2ccc3c(n2)CC2(C(=O)NC(=O)NC2=O)[C@H]2[C@H](C)O[C@H](C)CN32)n1 (relative stereo) [Example 104, (2R,4S,4aS)-rel-8-(6-Methoxypyrazin-2-yl)-2,4-dimethyl-1,2,4,4a-tetrahydro-2′H,6H-spiro[1,4-oxazino[4,3-a][1,5]naphthyridine-5,5′-pyrimidine]-2′,4′,6′(1′H,3′H)-trione]	22
COc1nc(-c2cnc3c(c2)CC2(C(=O)NC(=O)NC2=O)[C@H]2[C@H](C)O[C@H](C)CN32)cs1 (relative stereo) [Example 107, (6aS,7S,9R)-rel-3-(2-Methoxy-1,3-thiazol-4-yl)-7,9-dimethyl-6a,7,9,10-tetrahydro-2′H,5H-spiro[1,4-oxazino[4,3-a][1,8]naphthyridine-6,5′-pyrimidine]-2′,4′,6′(1′H,3′H)-trione]	6
Cc1nc(C)c(-c2ccc3c(n2)CC2(C(=O)NC(=O)NC2=O)[C@H]2[C@H](C)O[C@H](C)CN32)s1 (relative stereo) [Example 109, (2R,4S,4aS)-rel-8-(2,4-Dimethyl-1,3-thiazol-5-yl)-2,4-dimethyl-1,2,4,4a-tetrahydro-2′H,6H-spiro[1,4-oxazino[4,3-a][1,5]naphthyridine-5,5′-pyrimidine]-2′,4′,6′(1′H,3′H)-trione]	14
C[C@@H]1CN2c3ncc(-c4ccc(N5CCOCC5)nc4)cc3CC3(C(=O)NC(=O)NC3=O)[C@H]2[C@H](C)O1 (relative stereo) [Example 111, (6aS,7S,9R)-rel-7,9-Dimethyl-3-[6-(morpholin-4-yl)pyridin-3-yl]-6a,7,9,10-tetrahydro-2′H,5H-spiro[1,4-oxazino[4,3-a][1,8]naphthyridine-6,5′-pyrimidine]-2′,4′,6′(1′H,3′H)-trione]	23
C[C@@H]1CN2c3cnc(-c4ccc(N5CCOCC5)nc4)cc3CC3(C(=O)NC(=O)NC3=O)[C@H]2[C@H](C)O1 (relative stereo) [Example 112, (6aS,7S,9R)-rel-7,9-Dimethyl-3-[6-(morpholin-4-yl)pyridin-3-yl]-6a,7,9,10-tetrahydro-2′H,5H-spiro[1,4-oxazino[4,3-a][1,7]naphthyridine-6,5′-pyrimidine]-2′,4′,6′(1′H,3′H)-trione]	> 83
C[C@@H]1CN2c3ncc(C#N)cc3CC3(C(=O)NC(=O)NC3=O)[C@H]2[C@H](C)O1 (relative stereo) [Example 113, (6aS,7S,9R)-rel-7,9-Dimethyl-2′,4′,6′-trioxo-1′,3′,4′,6′,6a,7,9,10-octahydro-2′H,5H-spiro[1,4-oxazino[4,3-a][1,8]naphthyridine-6,5′-pyrimidine]-3-carbonitrile]	22
C[C@@H]1CN2c3c(nc(Br)c(F)c3Cl)CC3(C(=O)NC(=O)NC3=O)[C@H]2[C@H](C)O1 (relative stereo) [Example 114, (2R,4S,4aS)-rel-8-Bromo-10-chloro-9-fluoro-2,4-dimethyl-2,4,4a,6-tetrahydro-1H,1′H-spiro[[1,4]oxazino[4,3-a][1,5]naphthyridine-5,5′-pyrimidine]-2′,4′,6′(3′H)-trione]	2
C[C@@H]1CN2c3cc(Cl)ncc3CC3(C(=O)NC(=O)NC3=O)[C@H]2[C@H](C)O1 (relative stereo) [Example 115, (2R,4S,4aS)-rel-9-chloro-2,4-dimethyl-1,2,4,4a-tetrahydro-2′H,6H-spiro[1,4-oxazino[4,3-a][1,6]naphthyridine-5,5′-pyrimidine]-2′,4′,6′(1′H,3′H)-trione]	> 20
